Values after ≈ are worked out from the molar mass of the structure shown.

Assay [1] has as its system 15 in vitro models with tumor cells. The following applies: 15 in vitro tumor cell models; read-out: inhibitory dose 50 (IC50); cited from earlier work.
For assay [2], the system named is T84 human colon adenocarcinoma cell line. Briefly: Antiproliferative SRB assay of nanoparticles and isolated compounds in T84 cells. The assay is classed as cell-based. The following applies: T84, isolated compound, 72 h. As to the method: The human colon adenocarcinoma cell line T84was purchased from the American Type Culture Collection (Rockville, MD, USA). The non-tumor colon cell line CCD18 (human colon epithelial cell line) was used as control. All cell lines were grown in Dulbecco’s Modified Eagle’s Medium (DMEM) supplemented with 10% heat-inactivated fetal bovine serum (FBS) and ATB (antibiotic, streptomycin + amphotericin B) at 1% and maintained in an incubator at 37° C. and 5% CO2 humidified atmosphere.
Cells were seeded in 48-well plates with DMEM (Dulbecco’s modified Eagles Medium) (300 ul) at a density of 4 x 10^3 cells/well in CCD18 and 5 x 10^3 cells/well in T84. After 24 hours, cell cultures were exposed 72 h to increasing concentrations of the nanoparticles dissolved in DMEM. In addition, bioactive components of the extract, Esculetin (range from 0.1 µg/ml to 5 µg/ml) and Euphorbetin (range from 0.02 µg/ml to 0.7 µg/ml), were combined at different concentration in order to determine their antitumor activity and to compare with nanoparticle activity and ethanolic extract activity. After incubation time, cells were fixed with trichloroacetic acid (TCA) at 10% for 20 minutes at 4° C. […] Finally, the optical density (OD) at 492 nm was measured in a spectrophotometer. Cell survival (%) was calculated according to the following equation: […]

Usually IC50 stands for the concentration needed to halve the response being measured. With `CC(C)=CCC[C@@H](C)[C@@H]1CC[C@]2(C)C3=C(CC[C@@]12C)[C@@]1(C)CC[C@H](O)C(C)(C)[C@@H]1CC3` [Euphol], the half-maximal inhibitory concentration (IC50) in assay [1] was 2 to 30 µM. In turn, `O=c1ccc2cc(O)c(O)cc2o1` [Esculetin, esculetin] came in with an IC50 in assay [2] of 0.27 µg/mL (≈ 1.52 µM).
